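Cultured in 96-well plates, cells were exposed to test compound for 48 hours across five concentrations. TGI: total growth inhibition.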
What was measured:
Assay in all cases: NCI tumour cell line growth inhibition, 48 h
[1] = system: M14 melanoma
[2] = system: MDA-N
[3] = system: SF-539 CNS
[4] = system: BT-549 breast
[5] = system: DU-145 prostate
[6] = system: SK-OV-3 ovarian
[7] = system: COLO 205 colon
[8] = system: HS 578T breast
[9] = system: UACC-257 melanoma
[10] = system: SK-MEL-2 melanoma
[11] = system: HOP-62 NSCLC

Work on `O=S(=O)(O)c1cc(Nc2ccnc3ccccc23)c2c(S(=O)(=O)O)cc(S(=O)(=O)O)cc2c1` yielded a TGI [1] of over 100 µM, a TGI [2] of over 100 µM and a TGI [3] of over 100 µM. The TGI [4] was over 100 µM, the TGI [5] was over 100 µM and the TGI [6] was over 100 µM. It also gave a TGI [7] of over 100 µM, a TGI [8] of over 100 µM and a TGI [9] of over 100 µM. It also gave a TGI [10] of over 100 µM and a TGI [11] of over 100 µM.

`COc1ccc(N2C(N)=C(C#N)C(C#N)(C#N)C2c2cccc([N+](=O)[O-])c2)cc1` (stereo not given) gave a TGI [1] of 35.6 µM, a TGI [2] of 31.5 µM and a TGI [3] of 28.9 µM. The TGI [4] was 32.3 µM, the TGI [5] was 31.7 µM and the TGI [6] was 38.9 µM. It also gave a TGI [7] of 24 µM, a TGI [8] of 54.6 µM and a TGI [9] of 27.6 µM. It also gave a TGI [10] of 33.2 µM and a TGI [11] of 30.9 µM.

For `N#CCOc1cccc(C2(N3CC=CCC3)CCCCC2)c1`, the TGI [1] was over 100 µM, the TGI [2] was over 100 µM and the TGI [3] was over 100 µM. For the same compound, the TGI [4] was over 100 µM, the TGI [5] was over 100 µM and the TGI [6] was over 100 µM. It also gave a TGI [7] of over 100 µM, a TGI [8] of over 100 µM and a TGI [9] of over 100 µM. The TGI [10] was over 100 µM and the TGI [11] was over 100 µM.

`COc1cc(O)c2c(=O)c(OC)c(-c3ccc4c(c3)OCO4)oc2c1OC` gave a TGI [1] of over 50 µM, a TGI [2] of over 50 µM and a TGI [3] of over 50 µM. For the same compound, the TGI [4] was over 50 µM, the TGI [5] was over 50 µM and the TGI [6] was over 50 µM. For the same compound, the TGI [7] was over 50 µM, the TGI [8] was over 50 µM and the TGI [9] was over 50 µM. For the same compound, the TGI [10] was over 50 µM and the TGI [11] was over 50 µM.

In the case of `CCCCNC(=S)c1ccc(OC(=O)Nc2ccc(Cl)cc2)cc1`, the TGI [1] is reported as over 100 µM, the TGI [2] is reported as over 100 µM and the TGI [3] is reported as over 100 µM. It also gave a TGI [4] of over 100 µM, a TGI [5] of over 100 µM and a TGI [6] of over 100 µM. It also gave a TGI [7] of 57.5 µM, a TGI [8] of over 100 µM and a TGI [9] of over 100 µM. For the same compound, the TGI [10] was over 100 µM and the TGI [11] was over 100 µM.

Reference: PubChem BioAssay (NCI)
